Assay results taken from patent US9169482B2, “Method for synthesizing cDNA” (TAKARA BIO INC., priority 2010, dated 2015).

Molecular target: T1, DNaseI (Bos taurus, UniProt P00639)
T1 construct: purchased TAKARA BIO INC
Assay: Degradation of mouse genomic DNA with DNaseI in reaction solutions of Table 3, agarose gel electrophoresis (Example 2)
Format: biochemical
Conditions: 5 U DNaseI, 200 ng mouse genomic DNA
Procedure: In order to construct a reaction composition completely inhibiting endoDNase activity, six kinds of 20 μL-reaction solutions (Reaction Solutions 1 to 6) containing 5 U DNaseI (TAKARA BIO INC.), 200 ng mouse genomic DNA, and the components as listed in Table 3 were prepared. In addition, six kinds of 20 μL-reaction solutions having the same compositions except that DNaseI was not contained were prepared. These reaction solutions were incubated at 37° C. for 15 minutes, and thereafter incubated at 85° C. for 5 seconds. Next, each of the reaction solutions was subjected to agarose gel electrophoresis, thereby confirming degradation of mouse genomic DNA with DNaseI.
It could be confirmed from this matter that DNaseI activity was inhibited in Reaction Solutions 3 and 4. […] It is shown from this matter that adjustment of the Mg concentration can further inhibit DNaseI activity other than the addition of KCl and (NH4)2SO4 or an increase in the DTT concentration.

T1 sequence (P00639 23-282): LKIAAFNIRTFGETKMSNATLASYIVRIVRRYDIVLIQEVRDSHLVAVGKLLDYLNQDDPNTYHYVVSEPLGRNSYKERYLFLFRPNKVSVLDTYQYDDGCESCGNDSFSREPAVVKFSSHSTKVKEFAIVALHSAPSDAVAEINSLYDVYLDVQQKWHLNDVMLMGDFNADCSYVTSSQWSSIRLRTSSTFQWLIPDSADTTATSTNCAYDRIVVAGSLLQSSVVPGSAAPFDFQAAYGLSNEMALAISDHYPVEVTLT

Compound: N.N.O=S(=O)(O)O [(NH4)2SO4, ammonium sulfate]
- Inhibition of DNaseI activity: inhibited DNaseI activity in a concentration-dependent manner
